Results as given in ChEMBL document CHEMBL1201862, “PubChem BioAssay data set” (2004).
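Assay format: 96-well plates, 48-hour exposure. GI50 = concentration required for 50% inhibition of growth.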 Calls of active or inactive are those of the source. Rule as the data show it: active = GI50 up to about 1.1 µM and inactive = higher.

Experiments:
Experiment in all cases: NCI tumour cell line growth inhibition, 48 h
UO-31 = system: UO-31
M14 = system: M14
HCT-15 = system: HCT-15
OVCAR-5 = system: OVCAR-5
CAKI-1 = system: CAKI-1
SF-268 = system: SF-268
OVCAR-3 = system: OVCAR-3
MDA-MB-435 = system: MDA-MB-435
HOP-62 = system: HOP-62
EKVX = system: EKVX
SR = system: SR
NCI/ADR-RES = system: NCI/ADR-RES
T47D = system: T47D
CCRF-CEM = system: CCRF-CEM
U-251 = system: U-251
SW-620 = system: SW-620
LOX IMVI = system: LOX IMVI
IGROV-1 = system: IGROV-1
HL-60 = system: HL-60

Structure (SMILES)	GI50 (UO-31)	GI50 (M14)	GI50 (HCT-15) [µM]	GI50 (OVCAR-5)	GI50 (CAKI-1)	GI50 (SF-268)	GI50 (OVCAR-3)	GI50 (MDA-MB-435)	GI50 (HOP-62)	GI50 (EKVX)	GI50 (SR)	GI50 (NCI/ADR-RES)	GI50 (T47D)	GI50 (CCRF-CEM)	GI50 (U-251)	GI50 (SW-620)	GI50 (LOX IMVI)	GI50 (IGROV-1)	GI50 (HL-60)
CNC(=O)C1CCC(=O)N1CN(C(C)=O)c1ccccc1 (centres undefined)	> 100 µM (inactive)	> 100 µM (inactive)	> 100	> 100 µM (inactive)	> 100 µM (inactive)	> 100 µM (inactive)	> 100 µM (inactive)	> 100 µM (inactive)	> 100 µM (inactive)	> 100 µM (inactive)	13.6 µM (inactive)	> 100 µM (inactive)	> 100 µM (inactive)	0.0471 µM (active)	> 100 µM (inactive)	> 100 µM (inactive)	> 100 µM (inactive)	> 100 µM (inactive)	
COCN1COCN/C1=N\C#N	> 100 µM (inactive)	> 100 µM (inactive)	51.8	> 100 µM (inactive)	> 100 µM (inactive)	> 100 µM (inactive)	> 100 µM (inactive)		> 100 µM (inactive)	> 100 µM (inactive)	20.9 µM (inactive)				> 100 µM (inactive)	22.5 µM (inactive)		> 100 µM (inactive)	> 100 µM (inactive)
Cc1ccccc1C(=O)NC(O)(C(F)(F)F)C(F)(F)F	34.8 µM (inactive)	> 100 µM (inactive)	> 100	> 100 µM (inactive)	> 100 µM (inactive)	> 100 µM (inactive)	35.1 µM (inactive)	> 100 µM (inactive)	> 100 µM (inactive)	> 100 µM (inactive)		70 µM (inactive)	65.2 µM (inactive)	58.3 µM (inactive)	> 100 µM (inactive)	> 100 µM (inactive)	> 100 µM (inactive)	> 100 µM (inactive)	54.7 µM (inactive)
C/C1=C\[C@H](C)C[C@H](C)OC(=O)C[C@H](c2ccc(O)cc2)NC(=O)[C@H](Cc2ccc(O)c(Br)c2)N(C)C(=O)[C@H](C)NC(=O)[C@@H](C)C1	> 25 µM (inactive)	> 25 µM (inactive)	> 25	> 25 µM (inactive)		> 25 µM (inactive)	> 25 µM (inactive)	> 25 µM (inactive)	> 25 µM (inactive)	> 25 µM (inactive)	> 25 µM (inactive)	> 25 µM (inactive)		> 25 µM (inactive)	> 25 µM (inactive)	> 25 µM (inactive)	> 25 µM (inactive)	> 25 µM (inactive)	
Cn1c(N)[n+](C(=O)OCc2ccccc2)c(=O)c2c1ncn2C(=O)OCc1ccccc1	14.4 µM (inactive)	50.9 µM (inactive)	> 100	> 100 µM (inactive)	53 µM (inactive)	28.1 µM (inactive)	> 100 µM (inactive)		27 µM (inactive)	89.5 µM (inactive)				> 100 µM (inactive)	9.82 µM (inactive)	> 100 µM (inactive)	> 100 µM (inactive)	> 100 µM (inactive)	> 100 µM (inactive)
CN(C)CCNc1nc2c(no[n+]2[O-])c2ccccc12.[O-][Cl+3]([O-])([O-])O	19.5 µM (inactive)	15.7 µM (inactive)	18	38 µM (inactive)	26.1 µM (inactive)	4.42 µM (inactive)	30.8 µM (inactive)	18 µM (inactive)	13 µM (inactive)	26.1 µM (inactive)	15.1 µM (inactive)	31.2 µM (inactive)	57.9 µM (inactive)	30.3 µM (inactive)	31.5 µM (inactive)	11.1 µM (inactive)	16.8 µM (inactive)	18 µM (inactive)	
CCOc1ccccc1NC(=O)CCc1nnc2s/c(=C\CCc3ccccc3)c(=O)n12	> 100 µM (inactive)	> 100 µM (inactive)	> 100	> 100 µM (inactive)	> 100 µM (inactive)	> 100 µM (inactive)	> 100 µM (inactive)		> 100 µM (inactive)		> 100 µM (inactive)			> 100 µM (inactive)	> 100 µM (inactive)	> 100 µM (inactive)	> 100 µM (inactive)	> 100 µM (inactive)	> 100 µM (inactive)
FC(F)(F)C12C34C=CC5(CCC6(C=CC1(CC3)O6)C52C(F)(F)F)O4 (centres undefined)				> 100 µM (inactive)	> 100 µM (inactive)	> 100 µM (inactive)	> 100 µM (inactive)		> 100 µM (inactive)	> 100 µM (inactive)	> 100 µM (inactive)			> 100 µM (inactive)	> 100 µM (inactive)	> 100 µM (inactive)	> 100 µM (inactive)	> 100 µM (inactive)	> 100 µM (inactive)
Nc1ccc(-c2cc(C(=O)Nc3nccs3)nc(S)n2)cc1	> 100 µM (inactive)	> 100 µM (inactive)	> 100	> 100 µM (inactive)	> 100 µM (inactive)	> 100 µM (inactive)	> 100 µM (inactive)			> 100 µM (inactive)				> 100 µM (inactive)	> 100 µM (inactive)	> 100 µM (inactive)	> 100 µM (inactive)	> 100 µM (inactive)	
COC(=O)C(=O)C(C(=O)C=C(C)C)C(=O)C(=O)Nc1cccc(C(C)=O)c1 (centres undefined)	> 100 µM (inactive)	> 100 µM (inactive)	> 100	> 100 µM (inactive)	> 100 µM (inactive)	> 100 µM (inactive)	> 100 µM (inactive)		> 100 µM (inactive)	> 100 µM (inactive)	> 100 µM (inactive)			> 100 µM (inactive)	> 100 µM (inactive)	> 100 µM (inactive)	> 100 µM (inactive)	> 100 µM (inactive)	> 100 µM (inactive)
CN1C(=O)N(C)C(N2CCCC2)c2c1nc1ccccn1c2=O (centres undefined)	> 100 µM (inactive)	68.9 µM (inactive)	56.6			> 100 µM (inactive)	77.3 µM (inactive)		> 100 µM (inactive)	43.3 µM (inactive)	34.8 µM (inactive)			37.6 µM (inactive)	70.5 µM (inactive)	60.5 µM (inactive)	36.5 µM (inactive)	> 100 µM (inactive)	36.8 µM (inactive)
CCNc1nnc(CSc2nc(-c3ccccc3)c(-c3ccccc3)[nH]2)s1	14 µM (inactive)	17.5 µM (inactive)	18.3	21.4 µM (inactive)		15.7 µM (inactive)	20.6 µM (inactive)		19.9 µM (inactive)	14.3 µM (inactive)	31 µM (inactive)			18.3 µM (inactive)	13.7 µM (inactive)	20.2 µM (inactive)	16.5 µM (inactive)		15.5 µM (inactive)
O=C1C=CC(S(=O)(=O)C2=C/C(=C/Nc3ccc(Cl)cc3)C(=O)C=C2)=C/C1=C/Nc1ccc(Cl)cc1	> 100 µM (inactive)	> 100 µM (inactive)		> 100 µM (inactive)	> 100 µM (inactive)	> 100 µM (inactive)	> 100 µM (inactive)		> 100 µM (inactive)	> 100 µM (inactive)	> 100 µM (inactive)			> 100 µM (inactive)	> 100 µM (inactive)	> 100 µM (inactive)	> 100 µM (inactive)	> 100 µM (inactive)	> 100 µM (inactive)
COC(=O)C(=O)Cc1nc2ccccc2s1	> 100 µM (inactive)	> 100 µM (inactive)	> 100	> 100 µM (inactive)	> 100 µM (inactive)	> 100 µM (inactive)	> 100 µM (inactive)		> 100 µM (inactive)	> 100 µM (inactive)	> 100 µM (inactive)			> 100 µM (inactive)	> 100 µM (inactive)	> 100 µM (inactive)	> 100 µM (inactive)	> 100 µM (inactive)	> 100 µM (inactive)
CC1(C)[C@@H]2CC[C@@]1(C)[C@@H]1O[C@@H](O[C@@H](CN)c3cc(Cl)c(OCc4ccccc4)c(OCc4ccccc4)c3)C[C@H]21	0.173 µM (active)	0.164 µM (active)		0.166 µM (active)	0.165 µM (active)	0.192 µM (active)	0.168 µM (active)	0.162 µM (active)	0.179 µM (active)	0.166 µM (active)	0.0627 µM (active)		0.178 µM (active)	0.167 µM (active)	0.158 µM (active)	0.191 µM (active)	0.166 µM (active)	0.179 µM (active)	0.177 µM (active)
N#C/N=C(/N)NCc1ccccc1	> 100 µM (inactive)	> 100 µM (inactive)	> 100	> 100 µM (inactive)		> 100 µM (inactive)	> 100 µM (inactive)		> 100 µM (inactive)		> 100 µM (inactive)			> 100 µM (inactive)	> 100 µM (inactive)		> 100 µM (inactive)	> 100 µM (inactive)	> 100 µM (inactive)
CCCC1C(C#N)(C#N)C(C#N)=C(N)C1(C)C(C)=O (centres undefined)	> 100 µM (inactive)	> 100 µM (inactive)	29.2	> 100 µM (inactive)	10.1 µM (inactive)	> 100 µM (inactive)		> 100 µM (inactive)		> 100 µM (inactive)		> 100 µM (inactive)	59 µM (inactive)	> 100 µM (inactive)	> 100 µM (inactive)	> 100 µM (inactive)	> 100 µM (inactive)	> 100 µM (inactive)	31.8 µM (inactive)
Cc1ccc(S(=O)(=O)NC(C)C(=O)O)cc1 (centres undefined)	> 100 µM (inactive)	> 100 µM (inactive)	> 100	> 100 µM (inactive)	> 100 µM (inactive)	> 100 µM (inactive)	> 100 µM (inactive)			> 100 µM (inactive)					> 100 µM (inactive)	> 100 µM (inactive)	> 100 µM (inactive)	> 100 µM (inactive)	> 100 µM (inactive)
